{"source": "patent US10168342B2", "about": "“Lipid probes and uses thereof” (THE SCRIPPS RESEARCH INSTITUTE, priority 2015, dated 2019)", "key": {"[1]": {"biological_target": "T1, AEA-DA lipid probe targets in Neuro2a cells (Mus musculus, UniProt Q8CAQ8)", "T1 sequence (Q8CAQ8 34-757)": "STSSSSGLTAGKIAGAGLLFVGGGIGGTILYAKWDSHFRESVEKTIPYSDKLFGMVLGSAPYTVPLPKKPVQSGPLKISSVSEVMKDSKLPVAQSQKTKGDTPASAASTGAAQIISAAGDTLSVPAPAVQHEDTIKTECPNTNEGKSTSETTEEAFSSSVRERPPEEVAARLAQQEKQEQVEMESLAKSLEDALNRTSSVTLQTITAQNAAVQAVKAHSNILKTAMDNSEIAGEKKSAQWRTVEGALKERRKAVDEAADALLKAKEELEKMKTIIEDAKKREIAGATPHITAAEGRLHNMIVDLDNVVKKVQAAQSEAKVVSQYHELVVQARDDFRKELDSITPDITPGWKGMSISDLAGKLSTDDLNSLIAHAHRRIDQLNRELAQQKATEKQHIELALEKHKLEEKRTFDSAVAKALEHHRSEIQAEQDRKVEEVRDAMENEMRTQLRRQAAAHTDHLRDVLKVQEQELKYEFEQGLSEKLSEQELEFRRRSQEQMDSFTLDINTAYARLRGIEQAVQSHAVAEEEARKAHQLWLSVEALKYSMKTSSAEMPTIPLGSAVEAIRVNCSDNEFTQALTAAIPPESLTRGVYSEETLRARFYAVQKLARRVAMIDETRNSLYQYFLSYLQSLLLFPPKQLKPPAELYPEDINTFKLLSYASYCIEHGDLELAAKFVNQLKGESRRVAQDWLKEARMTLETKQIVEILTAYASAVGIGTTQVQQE"}, "[2]": {"biological_target": "AEA-DA lipid probe targets in Neuro2a cells (Mus musculus, UniProt Q9CYN2)", "sequence (Q9CYN2 whole entry)": "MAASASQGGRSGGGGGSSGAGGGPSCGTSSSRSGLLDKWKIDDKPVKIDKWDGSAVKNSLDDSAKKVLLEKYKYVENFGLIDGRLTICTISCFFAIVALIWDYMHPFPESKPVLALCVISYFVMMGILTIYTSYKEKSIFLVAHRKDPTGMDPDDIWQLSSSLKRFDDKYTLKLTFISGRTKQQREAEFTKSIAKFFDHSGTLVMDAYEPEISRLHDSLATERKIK"}, "[3]": {"biological_target": "T2, AEA-DA lipid probe targets in Neuro2a cells (Mus musculus, UniProt Q8CFE6)", "T2 sequence (Q8CFE6 1-504)": "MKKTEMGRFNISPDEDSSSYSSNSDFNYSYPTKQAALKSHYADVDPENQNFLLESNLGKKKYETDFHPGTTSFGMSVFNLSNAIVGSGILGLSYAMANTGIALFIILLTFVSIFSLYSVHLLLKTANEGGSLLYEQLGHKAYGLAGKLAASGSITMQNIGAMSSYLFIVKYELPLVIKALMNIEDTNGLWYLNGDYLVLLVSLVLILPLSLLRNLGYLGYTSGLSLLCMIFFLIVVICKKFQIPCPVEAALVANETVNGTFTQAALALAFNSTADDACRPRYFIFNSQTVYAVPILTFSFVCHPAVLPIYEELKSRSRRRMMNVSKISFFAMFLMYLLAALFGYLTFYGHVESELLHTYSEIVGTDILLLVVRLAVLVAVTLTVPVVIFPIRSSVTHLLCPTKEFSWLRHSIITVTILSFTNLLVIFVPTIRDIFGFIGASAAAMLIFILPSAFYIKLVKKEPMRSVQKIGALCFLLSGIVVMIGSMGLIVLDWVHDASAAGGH"}, "[4]": {"biological_target": "T3, AEA-DA lipid probe targets in Neuro2a cells (Mus musculus, UniProt Q8VC28)", "T3 sequence (Q8VC28 1-323)": "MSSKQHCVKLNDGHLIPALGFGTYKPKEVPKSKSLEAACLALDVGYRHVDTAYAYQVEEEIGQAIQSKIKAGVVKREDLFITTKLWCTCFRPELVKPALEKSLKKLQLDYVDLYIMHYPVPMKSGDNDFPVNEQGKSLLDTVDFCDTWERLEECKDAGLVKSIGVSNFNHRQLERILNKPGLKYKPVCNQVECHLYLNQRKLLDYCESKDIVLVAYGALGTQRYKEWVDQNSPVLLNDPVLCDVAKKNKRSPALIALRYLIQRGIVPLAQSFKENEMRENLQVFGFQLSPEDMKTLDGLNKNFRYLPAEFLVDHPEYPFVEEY"}, "[5]": {"biological_target": "T4, AEA-DA lipid probe targets in Neuro2a cells (Mus musculus, UniProt P37040)", "T4 sequence (P37040 1-678)": "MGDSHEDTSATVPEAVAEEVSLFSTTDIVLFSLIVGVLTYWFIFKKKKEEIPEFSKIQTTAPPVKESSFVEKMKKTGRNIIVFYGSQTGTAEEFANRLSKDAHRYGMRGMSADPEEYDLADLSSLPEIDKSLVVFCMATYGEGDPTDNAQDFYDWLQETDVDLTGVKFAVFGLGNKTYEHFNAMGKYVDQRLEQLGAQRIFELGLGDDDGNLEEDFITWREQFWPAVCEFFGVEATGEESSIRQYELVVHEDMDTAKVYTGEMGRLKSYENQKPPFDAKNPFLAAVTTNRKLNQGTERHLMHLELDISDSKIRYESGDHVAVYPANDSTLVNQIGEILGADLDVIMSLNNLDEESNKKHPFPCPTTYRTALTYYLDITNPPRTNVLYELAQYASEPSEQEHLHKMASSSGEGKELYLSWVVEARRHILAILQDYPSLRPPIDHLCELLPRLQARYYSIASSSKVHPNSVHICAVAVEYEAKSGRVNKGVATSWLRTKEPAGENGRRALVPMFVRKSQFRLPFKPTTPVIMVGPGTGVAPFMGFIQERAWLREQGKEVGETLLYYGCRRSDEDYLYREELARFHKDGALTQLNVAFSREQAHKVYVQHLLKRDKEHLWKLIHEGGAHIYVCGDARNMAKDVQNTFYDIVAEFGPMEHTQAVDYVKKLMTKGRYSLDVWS"}, "[6]": {"biological_target": "T5, AEA-DA lipid probe targets in Neuro2a cells (Mus musculus, UniProt Q99J56)", "T5 sequence (Q99J56 1-251)": "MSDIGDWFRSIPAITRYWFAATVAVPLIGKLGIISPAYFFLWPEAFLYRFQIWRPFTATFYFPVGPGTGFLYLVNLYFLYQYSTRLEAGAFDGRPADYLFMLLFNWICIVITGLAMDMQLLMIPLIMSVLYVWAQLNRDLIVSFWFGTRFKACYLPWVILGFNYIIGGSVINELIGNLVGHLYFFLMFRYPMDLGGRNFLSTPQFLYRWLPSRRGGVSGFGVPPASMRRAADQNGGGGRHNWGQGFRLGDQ"}, "[7]": {"biological_target": "AEA-DA lipid probe targets in Neuro2a cells (Mus musculus, UniProt O89079)", "sequence (O89079 whole entry)": "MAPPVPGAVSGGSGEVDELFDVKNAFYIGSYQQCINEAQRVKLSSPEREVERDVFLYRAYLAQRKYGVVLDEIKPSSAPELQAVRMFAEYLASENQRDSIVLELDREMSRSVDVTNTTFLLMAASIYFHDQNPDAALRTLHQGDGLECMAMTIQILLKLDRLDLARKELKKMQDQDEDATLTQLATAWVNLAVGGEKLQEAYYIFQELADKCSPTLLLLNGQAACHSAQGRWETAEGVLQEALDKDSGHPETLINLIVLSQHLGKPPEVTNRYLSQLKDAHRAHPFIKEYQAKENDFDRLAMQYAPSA"}}, "note": "Like-named read-outs stand apart in the source and are kept apart here."}
{"smiles": "CCCCC/C=C\\C/C=C\\C/C=C\\C/C=C\\CCCC(=O)NCCO", "note": "[AEA, anandamide, reference compound]", "values": [{"measurement": "SILAC ratio Immt", "setting": "[1]; competitor 200 μM", "result": 1.2}, {"measurement": "SILAC ratio Spcs2", "setting": "[2]; competitor 200 μM", "result": 1.7}, {"measurement": "SILAC ratio Slc38a2", "setting": "[3]; competitor 200 μM", "result": 1.5}, {"measurement": "SILAC ratio Akr1c13", "setting": "[4]; competitor 200 μM", "result": 1.7}, {"measurement": "SILAC ratio, Por", "setting": "[5]; competitor 200 μM", "result": 2.0}, {"measurement": "SILAC ratio, Derl1", "setting": "[6]; competitor 200 μM", "result": 1.8}, {"measurement": "SILAC ratio Cope", "setting": "[7]; competitor 200 μM", "result": 0.9}]}
{"smiles": "C=CCN(C)CCCCCCOc1ccc(C(=O)c2ccc(Br)cc2)c(F)c1", "note": "[Ro 48-8071, reference compound]", "values": [{"measurement": "SILAC ratio Immt", "setting": "[1]; competitor 25 μM", "result": 1.0}, {"measurement": "SILAC ratio Spcs2", "setting": "[2]; competitor 25 μM", "result": 1.2}, {"measurement": "SILAC ratio Slc38a2", "setting": "[3]; competitor 25 μM", "result": 0.7}, {"measurement": "SILAC ratio Akr1c13", "setting": "[4]; competitor 25 μM", "result": 1.0}, {"measurement": "SILAC ratio, Por", "setting": "[5]; competitor 25 μM", "result": 1.5}, {"measurement": "SILAC ratio, Derl1", "setting": "[6]; competitor 25 μM", "result": 1.1}, {"measurement": "SILAC ratio Cope", "setting": "[7]; competitor 25 μM", "result": 1.1}]}
{"smiles": "CN1CCN(C(=O)c2c(-c3ccccc3)c3cc([N+](=O)[O-])ccc3n2C)CC1", "note": "[KML110, (1-Methyl-5-nitro-3-phenyl-1H-indol-2-yl)(4-methylpiperazin-1-yl)methanone]", "values": [{"measurement": "SILAC ratio Immt", "setting": "[1]; competitor 25 μM", "result": 1.3}, {"measurement": "SILAC ratio Spcs2", "setting": "[2]; competitor 25 μM", "result": 1.6}, {"measurement": "SILAC ratio Slc38a2", "setting": "[3]; competitor 25 μM", "result": 1.2}, {"measurement": "SILAC ratio Akr1c13", "setting": "[4]; competitor 25 μM", "result": 1.1}, {"measurement": "SILAC ratio, Por", "setting": "[5]; competitor 25 μM", "result": 1.6}, {"measurement": "SILAC ratio, Derl1", "setting": "[6]; competitor 25 μM", "result": 1.2}]}
{"smiles": "O=C(/C=C/c1cccnc1)NCCCCC1CCN(C(=O)c2ccccc2)CC1", "note": "[FK-866, reference compound]", "values": [{"measurement": "SILAC ratio Immt", "setting": "[1]; competitor 25 μM", "result": 1.1}, {"measurement": "SILAC ratio Spcs2", "setting": "[2]; competitor 25 μM", "result": 1.3}, {"measurement": "SILAC ratio Slc38a2", "setting": "[3]; competitor 25 μM", "result": 1.0}, {"measurement": "SILAC ratio Akr1c13", "setting": "[4]; competitor 25 μM", "result": 1.0}, {"measurement": "SILAC ratio, Por", "setting": "[5]; competitor 25 μM", "result": 1.2}, {"measurement": "SILAC ratio, Derl1", "setting": "[6]; competitor 25 μM", "result": 1.3}, {"measurement": "SILAC ratio Cope", "setting": "[7]; competitor 25 μM", "result": 1.5}]}
{"smiles": "CN1CCN(C(=O)c2[nH]c3ccc([N+](=O)[O-])cc3c2-c2ccccc2)CC1", "note": "[MJN228, (4-Methylpiperazin-1-yl)(5-nitro-3-phenyl-1H-indol-2-yl)methanone]", "values": [{"measurement": "SILAC ratio Immt", "setting": "[1]; competitor 10 μM", "result": 1.1}, {"measurement": "SILAC ratio Immt", "setting": "[1]; competitor 25 μM", "result": 1.2}, {"measurement": "SILAC ratio Immt", "setting": "[1]; competitor 50 μM", "result": 1.1}, {"measurement": "SILAC ratio Immt", "setting": "[1]; competitor 100 μM", "result": 1.4}, {"measurement": "SILAC ratio Spcs2", "setting": "[2]; competitor 10 μM", "result": 1.2}, {"measurement": "SILAC ratio Spcs2", "setting": "[2]; competitor 25 μM", "result": 1.4}, {"measurement": "SILAC ratio Spcs2", "setting": "[2]; competitor 50 μM", "result": 1.5}, {"measurement": "SILAC ratio Spcs2", "setting": "[2]; competitor 100 μM", "result": 1.8}, {"measurement": "SILAC ratio Slc38a2", "setting": "[3]; competitor 10 μM", "result": 1.2}, {"measurement": "SILAC ratio Slc38a2", "setting": "[3]; competitor 25 μM", "result": 1.3}, {"measurement": "SILAC ratio Slc38a2", "setting": "[3]; competitor 100 μM", "result": 1.2}, {"measurement": "SILAC ratio Akr1c13", "setting": "[4]; competitor 25 μM", "result": 1.0}, {"measurement": "SILAC ratio Akr1c13", "setting": "[4]; competitor 50 μM", "result": 1.0}, {"measurement": "SILAC ratio, Por", "setting": "[5]; competitor 10 μM", "result": 1.4}, {"measurement": "SILAC ratio, Por", "setting": "[5]; competitor 25 μM", "result": 1.8}, {"measurement": "SILAC ratio, Por", "setting": "[5]; competitor 50 μM", "result": 2.0}, {"measurement": "SILAC ratio, Por", "setting": "[5]; competitor 100 μM", "result": 3.1}, {"measurement": "SILAC ratio, Derl1", "setting": "[6]; competitor 10 μM", "result": 1.2}, {"measurement": "SILAC ratio, Derl1", "setting": "[6]; competitor 25 μM", "result": 1.4}, {"measurement": "SILAC ratio, Derl1", "setting": "[6]; competitor 50 μM", "result": 1.7}, {"measurement": "SILAC ratio, Derl1", "setting": "[6]; competitor 100 μM", "result": 1.8}, {"measurement": "SILAC ratio Cope", "setting": "[7]; competitor 25 μM", "result": 1.2}]}
